test system: normal bladder epithelial as well as cells derived from urothelial carcinomas; assay: not given; settings: native and synthetic APF; cited from earlier work

Substance | concentrations inhibiting proliferation
Neu5Acα2-3Galβ1-3GalNAcα-O-TVPAAVVVA [APF] | picomolar to low nanomolar

test system: primary normal human bladder epithelial cells; assay: 3H-thymidine incorporation; type: cell-based; settings: not given

Substance | loss of potency/activity compared to parent as-APF 1 (orders of magnitude) | antiproliferative activity relative to as-APF 1 (in words)
Galβ1-3GalNAcα-O-SLPAAVVVA [compound 2] | 2 orders of magnitude | 
Galβ1-3GalNAcα-O-SVPAAVVVA [compound 3] | 4 orders of magnitude | 
Galβ1-3GalNAcα-O-TLPAAVVVA [compound 4] |  | inactivation
Galβ1-3GalNAcα-O-TLS(^ΨMe,Mepro)-AAVVVA [compound 9] |  | completely abolished activity
Galβ1-3GalNAcα-O-TV-Aze-AAVVVA [compound 10] |  | completely abolished activity
Galβ1-3GalNAcα-O-TV-Hyp-AAVVVA [compound 12] | 2–3 orders of magnitude | 
Galβ1-3GalNAcα-O-TV-Pip-AAVVVA [compound 15] |  | complete retention
Galβ1-3GalNAcα-O-TVPAAAAAA [compound 25] |  | decreased as-APF activity
Galβ1-3GalNAcα-O-TVPAAGGGA [compound 26] |  | complete inactivation
Galβ1-3GalNAcα-O-TVPAAVVVAK [compound 33] |  | complete loss of activity
Galβ1-3GalNAcα-O-TVPAAVVVAK(Ac) [compound 35] |  | some of which was restored
Galβ1-3GalNAcα-O-TVPAAVVVAK(dansyl) [compound 31] |  | no loss of activity

test system: primary normal human bladder epithelial cells; assay: not given; settings: biological antiproliferation assays; cited from earlier work

Substance | antiproliferative activity (previously determined, in words)
Galβ1-3GalNAcβ-O-TVPAAVVVA | completely inactive
Galβ1-4GlcNAcα-O-SLPAAVVVA | essentially equipotent
Neu5Acα2-3Galβ1-3GalNAcα-O-TVPAAVVVA [APF] | essentially equipotent
Neu5Acα2-3Galβ1-4GlcNAcα-O-TVPAAVVVA | essentially equipotent
Neu5Acα2-3Galβ1-4GlcNAcαO-SLPAAVVVA | essentially equipotent
TVPAAVVVA [nonglycosylated nonapeptide] | completely inactive
